Consider 20 compounds from patent US11912699B2, “Tau-protein targeting compounds and associated” (Arvinas Operations, Inc., priority 2019, dated 2024).

For this test, the target named is T1, Tau P301L (Homo sapiens, UniProt P10636, P618L).
T1 construct: expressed in transfected cells
Briefly: In vitro tau degradation assay in CHOK1 Tau P301L cells (sarkosyl insoluble tau, WES). As to conditions: CHO-K1, relative to DMSO doxycycline control, read-out: Tau Protein Degradation effect at 1 μM. It counts as cell-based. The gist of the method: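 T-Rex CHOK1 clone D1 with doxycycline-inducible (1 μg/ml) Tau P301L treated 48 h with compound at 1 μM, doxycycline removed for the final 24 h. Sarkosyl-insoluble tau quantified by WES capillary electrophoresis with Tau1 antibody, expressed relative to DMSO doxycycline control and binned as ≤50% or >50% remaining.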

Where [1] appears, read: remaining tau protein in sarkosyl insoluble pellet, CHOK1 Tau P301L cells treated 48 hours with test compound at 1 μM, doxycycline removed for the last 24 hours.
Where [2] appears, read: CHOK1 Tau P301L cells, remaining tau in sarkosyl insoluble pellet, 48 hours with test compound at 1 μM, doxycycline removed for last 24 hours.

Each structure is given as a SMILES string. Read-outs that look alike come from different tables or passages of the source.

T1 sequence (P10636 1-441 isoform P10636-8 P301L): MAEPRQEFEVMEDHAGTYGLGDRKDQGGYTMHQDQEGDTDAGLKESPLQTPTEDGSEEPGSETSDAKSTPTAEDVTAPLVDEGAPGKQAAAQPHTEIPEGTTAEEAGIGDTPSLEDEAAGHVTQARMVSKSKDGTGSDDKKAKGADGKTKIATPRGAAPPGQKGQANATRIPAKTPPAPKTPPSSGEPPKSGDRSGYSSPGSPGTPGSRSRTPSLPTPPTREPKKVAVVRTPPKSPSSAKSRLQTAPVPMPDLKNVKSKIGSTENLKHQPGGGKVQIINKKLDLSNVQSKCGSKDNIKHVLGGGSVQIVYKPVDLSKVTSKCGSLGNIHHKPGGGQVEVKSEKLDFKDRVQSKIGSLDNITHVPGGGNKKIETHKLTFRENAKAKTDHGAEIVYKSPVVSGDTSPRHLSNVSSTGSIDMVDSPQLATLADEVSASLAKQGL

As to `O=C1CCC(N2C(=O)c3ccc(N4CCN(CCC5CCN(c6ncc(-c7ccc8c9cnccc9n(C(F)F)c8c7)cn6)CC5)CC4)cc3C2=O)C(=O)N1` (centres unmarked) [Compound 514, 5-(4-(2-(1-(5-(5-(difluoromethyl)-5H-pyrido[4,3-b]indol-7-yl)pyrimidin-2-yl)piperidin-4-yl)ethyl)piperazin-1-yl)-2-(2,6-dioxopiperidin-3-yl)isoindoline-1,3-dione], the remaining activity at 1 µM under setting [1] was below 50%. As for `O=C1CCC(N2Cc3c(cccc3N3CCN(CCC4CCN(c5ncc(-c6ccc7c8cnccc8n(C(F)F)c7c6)cc5F)CC4)CC3)C2=O)C(=O)N1` (centres unmarked) [Compound 682, 3-(4-(4-(2-(1-(5-(5-(difluoromethyl)-5H-pyrido[4,3-b]indol-7-yl)-3-fluoropyridin-2-yl)piperidin-4-yl)ethyl)piperazin-1-yl)-1-oxoisoindolin-2-yl)piperidine-2,6-dione], the remaining activity at 1 µM under setting [2] was below 50%. With `Cc1ncsc1-c1ccc([C@H](C)NC(=O)[C@@H]2C[C@@H](O)CN2C(=O)C(c2cc(OCCOCCOCCOc3ccc(-c4ccc5c(c4)[nH]c4ccncc45)cn3)no2)C(C)C)cc1` (stereo in doubt) [Compound 395, (2S,4R)-1-((S)-2-(3-(2-(2-(2-((5-(5H-pyrido[4,3-b]indol-7-yl)pyridin-2-yl)oxy)ethoxy)ethoxy)ethoxy)isoxazol-5-yl)-3-methylbutanoyl)-4-hydroxy-N-((S)-1-(4-(4-methylthiazol-5-yl)phenyl)ethyl) pyrrolidine-2-carboxamide], under setting [1], the remaining activity at 1 µM was above 50%. The same measure, in the same setting: the value for `Cn1c2ccncc2c2ccc(-c3ccc(O[C@H]4C[C@H](CN5CCC(CC6CCN(c7ccc8c(c7)C(=O)N(C7CCC(=O)NC7=O)C8=O)CC6)CC5)C4)nc3)cc21` (some centres unmarked) [Compound 485, 2-(2,6-dioxopiperidin-3-yl)-5-(4-((1-(((1r,3r)-3-((5-(5-methyl-5H-pyrido[4,3-b]indol-7-yl)pyridin-2-yl)oxy)cyclobutyl)methyl)piperidin-4-yl)methyl)piperidin-1-yl)isoindoline-1,3-dione] was below 50%; that for `CN(C)c1cccc2cnc(-n3ccc4cc(N5CCC(CCN6CCN(c7ccc8c(c7)C(=O)N(C7CCC(=O)NC7=O)C8=O)CC6)CC5)ncc43)cc12` (centres unmarked) [Compound 512, 5-(4-(2-(1-(1-(5-(dimethylamino)iso-quinolin-3-yl)-1H-pyrrolo[2,3-c]pyridin-5-yl)piperidin-4-yl)ethyl)piperazin-1-yl)-2-(2,6-dioxopiperidin-3-yl)isoindoline-1,3-dione] was below 50%. In the case of `COc1cc(N2CCN(CCC3CCN(c4ncc(-c5ccc6c7cnccc7n(C(F)F)c6c5)cc4F)CC3)CC2)cc2c1C(=O)N(C1CCC(=O)NC1=O)C2=O` (centres unmarked) [Compound 635, 6-(4-(2-(1-(5-(5-(difluoromethyl)-5H-pyrido[4,3-b]indol-7-yl)-3-fluoropyridin-2-yl)piperidin-4-yl)ethyl)piperazin-1-yl)-2-(2,6-dioxopiperidin-3-yl)-4-methoxyisoindoline-1,3-dione], the remaining activity at 1 µM under setting [2] is below 50%. For the compound `O=C1CCC(N2C(=O)c3ccc(N4CCN(C5CC6(CCN(c7ncc(-c8ccc9c%10cnccc%10n(C(F)F)c9c8)cc7F)CC6)C5)CC4)cc3C2=O)C(=O)N1` (centres unmarked) [Compound 613, 5-(4-(7-(5-(5-(difluoromethyl)-5H-pyrido[4,3-b]indol-7-yl)-3-fluoropyridin-2-yl)-7-azaspiro[3.5]nonan-2-yl)piperazin-1-yl)-2-(2,6-dioxopiperidin-3-yl)isoindoline-1,3-dione], under setting [2], the remaining activity at 1 µM is above 50%. For the compound `CN1CCc2[nH]c3cc(-c4cnc(N5CCC(CCN6CCN(c7cc8c(cc7F)C(=O)N(C7CCC(=O)NC7=O)C8=O)CC6)CC5)c(F)c4)ccc3c2C1` (centres unmarked) [Compound 647, 2-(2,6-dioxopiperidin-3-yl)-5-fluoro-6-(4-(2-(1-(3-fluoro-5-(2-methyl-2,3,4,5-tetrahydro-1H-pyrido[4,3-b]indol-7-yl)pyridin-2-yl)piperidin-4-yl)ethyl)piperazin-1-yl)isoindoline-1,3-dione], under setting [2], the remaining activity at 1 µM was above 50%.

For the compound `Cn1c2ccncc2c2ccc(-c3ccc(O[C@H]4C[C@H](N(C)C5CC6(C5)CN(CCOc5ccc7c(c5)C(=O)N(C5CCC(=O)NC5=O)C7=O)C6)C4)nc3)cc21` (some centres unmarked) [Compound 392, 2-(2,6-dioxopiperidin-3-yl)-5-(2-(6-(methyl((1r,3r)-3-((5-(5-methyl-5H-pyrido[4,3-b]indol-7-yl)pyridin-2-yl)oxy)cyclobutyl)amino)-2-azaspiro[3.3]heptan-2-yl)ethoxy) isindoline-1,3-dione], the remaining activity at 1 µM under setting [1] was above 50%.

Take `O=C1CCC(N2C(=O)c3ccc(N4CCN(CC5CCN(c6ncc(-c7ccc8c9cnccc9n(C(F)F)c8c7)cc6C(F)(F)F)CC5)CC4)cc3C2=O)C(=O)N1` (centres unmarked) [Compound 494, 5-(4-((1-(5-(5-(difluoromethyl)-5H-pyrido[4,3-b]indol-7-yl)-3-(trifluoromethyl)pyridin-2-yl)piperidin-4-yl)methyl)piperazin-1-yl)-2-(2,6-dioxopiperidin-3-yl)isoindoline-1,3-dione]: the remaining activity at 1 µM under setting [1] is below 50%. In the case of `Cc1ccc(-n2ccc3cc(N4CCC(CCN5CCN(c6ccc7c(c6)C(=O)N(C6CCC(=O)NC6=O)C7=O)CC5)CC4)ncc32)nc1` (centres unmarked) [Compound 555, 2-(2,6-dioxopiperidin-3-yl)-5-(4-(2-(1-(1-(5-methylpyridin-2-yl)-1H-pyrrolo[2,3-c]pyridin-5-yl)piperidin-4-yl)ethyl)piperazin-1-yl)isoindoline-1,3-dione], the remaining activity at 1 µM under setting [1] was below 50%.

On to `O=C1CCC(N2C(=O)c3ccc(C#CCN4CCN(CCC5CCN(c6ncc(-c7ccc8c9cnccc9n(C(F)F)c8c7)cc6F)CC5)CC4)cc3C2=O)C(=O)N1` (centres unmarked) [Compound 566, 5-(3-(4-(2-(1-(5-(5-(difluoromethyl)-5H-pyrido[4,3-b]indol-7-yl)-3-fluoropyridin-2-yl)piperidin-4-yl)ethyl)piperazin-1-yl)prop-1-yn-1-yl)-2-(2,6-dioxopiperidin-3-yl)isoindoline-1,3-dione], for which, under setting [1], the remaining activity at 1 µM was below 50%. Same read-out and setting: then `Cc1ncsc1-c1ccc([C@H](C)NC(=O)[C@@H]2C[C@@H](O)CN2C(=O)[C@@H](c2cc(OCCN3CCC(OC4CN(c5ccc(-c6ccc7c8cnccc8n(C)c7c6)cn5)C4)CC3)no2)C(C)C)cc1` (single isomer, unassigned) [Compound 467], with above 50%. On to `O=C1CCC(N2C(=O)c3ccc(OCCC4CCN(C[C@H]5C[C@H](Oc6ncc(-c7ccc8c9cnccc9n(C(F)F)c8c7)cc6F)C5)CC4)cc3C2=O)C(=O)N1` (some centres unmarked) [Compound 636, 5-(2-(1-(((1r,3r)-3-((5-(5-(difluoromethyl)-5H-pyrido[4,3-b]indol-7-yl)-3-fluoropyridin-2-yl)oxy)cyclobutyl)methyl)piperidin-4-yl)ethoxy)-2-(2,6-dioxopiperidin-3-yl)isoindoline-1,3-dione], for which, under setting [2], the remaining activity at 1 µM is above 50%.

On to `CN1CCc2c([nH]c3cc(-c4cnc(N5CCC(CCN6CCN(c7ccc8c(c7)C(=O)N(C7CCC(=O)NC7=O)C8=O)CC6)CC5)c(F)c4)ccc23)C1` (centres unmarked) [Compound 634, 2-(2,6-dioxopiperidin-3-yl)-5-(4-(2-(1-(3-fluoro-5-(2-methyl-2,3,4,9-tetrahydro-1H-pyrido[3,4-b]indol-7-yl)pyridin-2-yl)piperidin-4-yl)ethyl)piperazin-1-yl)isoindoline-1,3-dione], for which the remaining activity at 1 µM under setting [2] was below 50%. Regarding `Cn1c2ccncc2c2ccc(-c3ccc(O[C@H]4C[C@H](Oc5ccc(C#CCN6CC(Oc7ccc8c(c7)CN(C7CCC(=O)NC7=O)C8=O)C6)nc5)C4)nc3)cc21` (some centres unmarked) [Compound 340, 3-(5-((1-(3-(5-((1r,3r)-3-((5-(5-methyl-5H-pyrido[4,3-b]indol-7-yl)pyridin-2-yl)oxy)cyclobutoxy)pyridin-2-yl)prop-2-yn-1-yl)azetidin-3-yl)oxy)-1-oxoisoindolin-2-yl)piperidine-2,6-dione], under setting [1], the remaining activity at 1 µM was above 50%. In the case of `N#Cc1cc(-c2ccc3c4cnccc4n(C(F)F)c3c2)cnc1N1CCC(CCN2CCN(c3ccc4c(c3)C(=O)N(C3CCC(=O)NC3=O)C4=O)CC2)CC1` (centres unmarked) [Compound 454, 5-(5-(difluoromethyl)-5H-pyrido[4,3-b]indol-7-yl)-2-(4-(2-(4-(2-(2,6-dioxopiperidin-3-yl)-1,3-dioxoisoindolin-5-yl)piperazin-1-yl)ethyl)piperidin-1-yl)nicotinonitrile], the remaining activity at 1 µM under setting [1] was below 50%.

Consider `O=C1CCC(N2C(=O)c3ccc(N4CCN(CC#CC5CCN(c6ncc(-c7ccc8c9cnccc9n(C(F)F)c8c7)cc6F)CC5)CC4)cc3C2=O)C(=O)N1` (centres unmarked) [Compound 574, 5-(4-(3-(1-(5-(5-(difluoromethyl)-5H-pyrido[4,3-b]indol-7-yl)-3-fluoropyridin-2-yl)piperidin-4-yl)prop-2-yn-1-yl)piperazin-1-yl)-2-(2,6-dioxopiperidin-3-yl)isoindoline-1,3-dione], for which the remaining activity at 1 µM under setting [1] was below 50%. As for `O=C1CCC(N2C(=O)c3ccc(N4CCN(C(=O)CC5CCN(c6ncc(-c7ccc8c9cnccc9n(C(F)F)c8c7)cc6F)CC5)CC4)cc3C2=O)C(=O)N1` (centres unmarked) [Compound 592, 5-(4-(2-(1-(5-(5-(difluoromethyl)-5H-pyrido[4,3-b]indol-7-yl)-3-fluoropyridin-2-yl)piperidin-4-yl)acetyl)piperazin-1-yl)-2-(2,6-dioxopiperidin-3-yl)isoindoline-1,3-dione], the remaining activity at 1 µM under setting [1] is below 50%. Regarding `O=C1CCC(N2C(=O)c3cc(F)c(N4CC5(CN(CCC6CCN(c7ncc(-c8ccc9c%10cnccc%10n(C(F)F)c9c8)cc7F)CC6)C5)C4)cc3C2=O)C(=O)N1` (centres unmarked) [Compound 642, 5-(6-(2-(1-(5-(5-(difluoromethyl)-5H-pyrido[4,3-b]indol-7-yl)-3-fluoropyridin-2-yl)piperidin-4-yl)ethyl)-2,6-diazaspiro[3.3]heptan-2-yl)-2-(2,6-dioxopiperidin-3-yl)-6-fluoroisoindoline-1,3-dione], under setting [2], the remaining activity at 1 µM was below 50%.
